Assay results: US20080009418A1, “Selective Inhibitors” (Alchemia LTD., priority 2004, published 2008)

Experiments:
[1] = target: T1, Human δ-opioid (DOP) (Homo sapiens, UniProt P41143); assay: Radioligand binding, human δ-opioid (DOP) membranes, FlashPlate, [3H]-Bremazocine; details: compound at 10 μM, [3H]-Bremazocine
T1 construct: purchased Perkin Elmer Biosignal
In short: (§1)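 Cloned human receptor membranes were coated onto FlashPlate wells and incubated with radioligand and compound (added from a 0.5 mM DMSO daughter plate) for 1 hour at room temperature in the dark. Scintillation counting gave percent inhibition, with DMSO defining total and reference ligand defining non-specific binding.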

[2] = target: T2, Human κ-Opioid (KOP) (Homo sapiens, UniProt P41145); assay: Radioligand binding, human κ-opioid (KOP) membranes, filtration, [3H]-Diprenorphine; details: compound at 10 μM, [3H]-Diprenorphine
T2 construct: purchased Perkin Elmer Biosignal
T2 sequence (P41145 whole entry): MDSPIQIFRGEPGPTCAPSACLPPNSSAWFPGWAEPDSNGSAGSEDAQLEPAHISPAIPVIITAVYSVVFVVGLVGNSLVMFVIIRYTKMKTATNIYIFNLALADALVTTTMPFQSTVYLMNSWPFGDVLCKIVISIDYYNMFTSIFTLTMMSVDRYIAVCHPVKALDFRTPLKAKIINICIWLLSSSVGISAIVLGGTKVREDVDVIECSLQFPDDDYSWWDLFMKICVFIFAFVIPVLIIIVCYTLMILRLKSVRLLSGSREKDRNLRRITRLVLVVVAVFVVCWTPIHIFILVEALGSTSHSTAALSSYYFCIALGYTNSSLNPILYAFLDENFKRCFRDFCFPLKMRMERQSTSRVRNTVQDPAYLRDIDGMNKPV
In short: (§2)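 Percent inhibition of radioligand binding measured on recombinant human membranes: NK1 with [125I]-Substance P, KOP with [3H]-Diprenorphine. Incubation 1 h at room temperature, then harvest onto 0.3% PEI-soaked filters, cold Tris-HCl pH 7.4 washes and scintillation counting; non-specific binding from reference ligand wells.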

[3] = target: T3, Human Melanocortin (MC3) (Homo sapiens, UniProt P41968); assay: Radioligand binding, human melanocortin MC3 membranes, FlashPlate, [125I]-NDP-αMSH; details: compound at 10 μM, [125I]-NDP-αMSH
T3 construct: purchased Perkin Elmer Biosignal
T3 sequence (P41968 whole entry): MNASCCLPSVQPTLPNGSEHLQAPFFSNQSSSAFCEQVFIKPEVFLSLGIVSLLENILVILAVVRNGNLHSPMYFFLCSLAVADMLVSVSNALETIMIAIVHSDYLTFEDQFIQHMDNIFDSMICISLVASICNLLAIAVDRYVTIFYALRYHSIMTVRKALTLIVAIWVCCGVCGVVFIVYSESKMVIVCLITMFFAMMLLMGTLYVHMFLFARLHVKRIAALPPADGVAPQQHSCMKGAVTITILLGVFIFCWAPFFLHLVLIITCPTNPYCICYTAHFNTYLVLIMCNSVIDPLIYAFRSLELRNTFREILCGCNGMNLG
In short: as §1

[4] = target: T4, Human Melanocortin (MC4) (Homo sapiens, UniProt P32245); assay: Radioligand binding, human melanocortin MC4 membranes, FlashPlate, [125I]-NDP-αMSH; details: compound at 10 μM, [125I]-NDP-αMSH
T4 construct: purchased Perkin Elmer Biosignal
T4 sequence (P32245 whole entry): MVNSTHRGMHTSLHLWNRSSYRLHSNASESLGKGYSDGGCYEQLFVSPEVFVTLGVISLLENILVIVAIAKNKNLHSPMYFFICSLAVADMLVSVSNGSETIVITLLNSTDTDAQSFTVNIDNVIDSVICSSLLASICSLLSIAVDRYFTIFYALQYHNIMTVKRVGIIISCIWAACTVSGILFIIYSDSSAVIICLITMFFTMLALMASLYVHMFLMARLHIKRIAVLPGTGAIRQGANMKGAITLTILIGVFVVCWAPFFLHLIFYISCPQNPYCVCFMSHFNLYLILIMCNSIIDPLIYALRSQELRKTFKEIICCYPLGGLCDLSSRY
In short: as §1

[5] = target: T5, Human melanocortin (MC5) (Homo sapiens, UniProt P33032); assay: Radioligand binding, human melanocortin MC5 membranes, FlashPlate, [125I]-NDP-αMSH; details: compound at 10 μM, [125I]-NDP-αMSH
T5 construct: purchased Perkin Elmer Biosignal
T5 sequence (P33032 whole entry): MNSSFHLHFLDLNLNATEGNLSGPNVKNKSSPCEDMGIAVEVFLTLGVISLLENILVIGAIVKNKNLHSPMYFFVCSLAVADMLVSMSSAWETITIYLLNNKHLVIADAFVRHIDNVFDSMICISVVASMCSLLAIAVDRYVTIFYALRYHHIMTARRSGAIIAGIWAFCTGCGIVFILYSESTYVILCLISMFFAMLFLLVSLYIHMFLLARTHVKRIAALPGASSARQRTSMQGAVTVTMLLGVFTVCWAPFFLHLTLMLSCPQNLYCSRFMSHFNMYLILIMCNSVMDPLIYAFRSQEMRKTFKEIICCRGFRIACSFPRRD
In short: as §1

[6] = target: T6, Human melanin-concentrating hormone (MCH1) (Homo sapiens, UniProt Q99705); assay: Radioligand binding, human melanin-concentrating hormone MCH1 membranes, FlashPlate, [125I]-S36057; details: compound at 10 μM
T6 construct: purchased Perkin Elmer Biosignal
T6 sequence (Q99705 whole entry): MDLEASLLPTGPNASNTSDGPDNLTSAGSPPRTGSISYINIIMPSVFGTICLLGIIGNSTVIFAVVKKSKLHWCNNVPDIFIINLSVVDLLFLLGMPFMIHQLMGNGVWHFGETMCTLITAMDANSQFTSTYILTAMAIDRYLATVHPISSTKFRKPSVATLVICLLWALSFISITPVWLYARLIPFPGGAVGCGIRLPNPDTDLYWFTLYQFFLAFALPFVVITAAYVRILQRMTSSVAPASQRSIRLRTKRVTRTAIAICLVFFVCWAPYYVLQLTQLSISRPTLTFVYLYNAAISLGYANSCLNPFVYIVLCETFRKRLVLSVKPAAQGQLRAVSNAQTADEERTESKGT
In short: as §1

[7] = target: T7, Human μ-opioid (MOP) (Homo sapiens, UniProt P35372); assay: Radioligand binding, human μ-opioid (MOP) membranes, FlashPlate, [3H]-Naloxone; details: compound at 10 μM, [3H]-Naloxone
T7 construct: purchased Perkin Elmer Biosignal
T7 sequence (P35372 whole entry): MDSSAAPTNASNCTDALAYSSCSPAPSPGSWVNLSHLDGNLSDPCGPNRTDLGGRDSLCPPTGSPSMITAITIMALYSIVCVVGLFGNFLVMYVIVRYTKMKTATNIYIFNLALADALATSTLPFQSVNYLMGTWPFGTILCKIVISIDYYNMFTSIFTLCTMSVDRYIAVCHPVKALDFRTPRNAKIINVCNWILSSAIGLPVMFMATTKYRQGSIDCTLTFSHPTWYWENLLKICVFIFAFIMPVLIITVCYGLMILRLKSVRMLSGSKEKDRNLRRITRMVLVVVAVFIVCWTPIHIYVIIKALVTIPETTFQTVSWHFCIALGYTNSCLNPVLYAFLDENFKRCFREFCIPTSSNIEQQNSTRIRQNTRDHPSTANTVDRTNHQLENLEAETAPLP
In short: as §1

[8] = target: T8, Human neurokinin (NK1) (Homo sapiens, UniProt P25103); assay: Radioligand binding, human neurokinin NK1 membranes, filtration, [125I]-Substance P; details: compound at 10 μM, [125I]-Substance P
T8 construct: purchased Perkin Elmer Biosignal
T8 sequence (P25103 whole entry): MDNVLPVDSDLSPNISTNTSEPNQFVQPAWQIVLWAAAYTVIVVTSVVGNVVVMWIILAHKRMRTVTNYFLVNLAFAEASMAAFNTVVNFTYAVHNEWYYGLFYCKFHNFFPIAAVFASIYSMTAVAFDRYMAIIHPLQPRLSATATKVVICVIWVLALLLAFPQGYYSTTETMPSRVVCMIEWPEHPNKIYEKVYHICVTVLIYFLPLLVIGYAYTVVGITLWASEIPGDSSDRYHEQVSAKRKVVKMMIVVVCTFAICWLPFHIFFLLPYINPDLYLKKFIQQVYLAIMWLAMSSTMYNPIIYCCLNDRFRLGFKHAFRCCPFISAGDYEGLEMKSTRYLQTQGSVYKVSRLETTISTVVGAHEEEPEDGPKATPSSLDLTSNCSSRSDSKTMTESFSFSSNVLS
In short: as §2

[9] = target: T9, Human neuropeptide Y (NPY-Y1) (Homo sapiens, UniProt P25929); assay: Radioligand binding, human neuropeptide Y NPY-Y1 membranes, FlashPlate, [125I]-PYY; details: compound at 10 μM, [125I]-PYY
T9 construct: purchased Perkin Elmer Biosignal
T9 sequence (P25929 1-384): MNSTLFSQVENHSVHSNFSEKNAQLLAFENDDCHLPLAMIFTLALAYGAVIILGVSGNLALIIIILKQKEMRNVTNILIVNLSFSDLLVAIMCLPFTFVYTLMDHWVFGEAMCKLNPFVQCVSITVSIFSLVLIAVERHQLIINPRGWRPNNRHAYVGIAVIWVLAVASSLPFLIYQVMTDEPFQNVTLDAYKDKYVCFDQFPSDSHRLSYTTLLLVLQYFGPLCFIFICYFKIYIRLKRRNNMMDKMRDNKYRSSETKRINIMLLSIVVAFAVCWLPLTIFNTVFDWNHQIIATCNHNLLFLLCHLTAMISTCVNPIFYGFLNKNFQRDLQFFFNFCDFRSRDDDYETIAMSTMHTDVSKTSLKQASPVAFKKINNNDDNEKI
In short: as §1

[10] = target: T10, Human opioid (ORL1) (Homo sapiens, UniProt P41146); assay: Radioligand binding, human opioid ORL1 membranes, FlashPlate, [125I]-Nociceptin; details: compound at 10 μM, [125I]-Nociceptin
T10 construct: purchased Perkin Elmer Biosignal
T10 sequence (P41146 whole entry): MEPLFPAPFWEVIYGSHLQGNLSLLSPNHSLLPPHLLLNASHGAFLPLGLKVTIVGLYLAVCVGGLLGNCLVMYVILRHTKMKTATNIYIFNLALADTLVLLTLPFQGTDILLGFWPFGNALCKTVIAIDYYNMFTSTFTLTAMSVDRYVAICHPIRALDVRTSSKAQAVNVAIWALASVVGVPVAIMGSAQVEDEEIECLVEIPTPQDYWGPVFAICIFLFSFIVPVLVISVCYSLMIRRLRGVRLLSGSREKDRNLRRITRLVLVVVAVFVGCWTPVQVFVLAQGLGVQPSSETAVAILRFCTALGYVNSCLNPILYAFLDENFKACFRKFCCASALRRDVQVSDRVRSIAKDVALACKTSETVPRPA
In short: as §1

[11] = target: T11, Mouse urotensin (mUR2) (Mus musculus, UniProt Q8VIH9); assay: Radioligand binding, mouse urotensin mUR2 membranes, FlashPlate, [125I]-Urotensin II; details: compound at 10 μM, [125I]-Urotensin II
T11 construct: purchased Perkin Elmer Biosignal
T11 sequence (Q8VIH9 1-385): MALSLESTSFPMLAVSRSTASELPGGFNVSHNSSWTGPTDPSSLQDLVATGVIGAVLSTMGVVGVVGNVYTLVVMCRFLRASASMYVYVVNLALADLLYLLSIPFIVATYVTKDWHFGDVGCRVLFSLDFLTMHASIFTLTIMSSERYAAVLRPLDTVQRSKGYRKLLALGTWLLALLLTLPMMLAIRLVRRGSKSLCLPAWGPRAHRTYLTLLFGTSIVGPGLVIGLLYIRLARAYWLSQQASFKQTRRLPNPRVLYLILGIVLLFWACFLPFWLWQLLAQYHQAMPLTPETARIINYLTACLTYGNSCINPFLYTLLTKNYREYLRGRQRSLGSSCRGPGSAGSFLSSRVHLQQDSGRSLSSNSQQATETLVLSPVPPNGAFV
In short: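 Cloned mouse urotensin (mUR2) receptor membranes from Perkin Elmer Biosignal were immobilized in FlashPlate microplates using a proprietary coating. Each well got 19.5 μl buffer, then 0.5 μl of DMSO, reference ligand, or compound. Adding 5 μl of [125I]-Urotensin II, diluted to 5× final concentration in binding buffer, started binding. Plates were sealed with TopSeal-A and incubated 1 hour at room temperature in the dark. Wells were counted for 30 seconds each on a TopCount after a 60-second delay, and percentage inhibition was calculated.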

T1 sequence (P41143 whole entry): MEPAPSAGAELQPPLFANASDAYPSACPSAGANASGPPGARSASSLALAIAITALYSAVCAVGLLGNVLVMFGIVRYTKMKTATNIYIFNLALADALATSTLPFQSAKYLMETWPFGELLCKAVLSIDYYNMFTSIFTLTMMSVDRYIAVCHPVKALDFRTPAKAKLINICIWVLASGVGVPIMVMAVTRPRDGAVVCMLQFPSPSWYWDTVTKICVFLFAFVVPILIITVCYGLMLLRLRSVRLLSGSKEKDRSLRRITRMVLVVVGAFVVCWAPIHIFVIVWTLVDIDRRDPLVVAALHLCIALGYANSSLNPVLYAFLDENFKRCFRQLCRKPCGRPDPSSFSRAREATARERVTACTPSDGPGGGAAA

## N=C(N)NCCC(=O)NC1C(OCc2ccc(-c3ccccc3)cc2)OC(COCc2ccc3ccccc3c2)C(O)C1OCc1ccc(Cl)cc1 (stereo not shown) [compound 408]
[1]; human DOP membranes
  A1: inhibition of radioligand binding: − (“−” indicates less than 50% inhibition at 10 μM)
[2]; human KOP membranes
  A2: inhibition of radioligand binding: − (“−” indicates less than 50% inhibition at 10 μM)
[3]; human MC3 membranes
  A3: inhibition of radioligand binding: + (“+” indicates greater than 50% inhibition at 10 μM)
[4]; human MC4 membranes
  A4: inhibition of radioligand binding: + (“+” indicates greater than 50% inhibition at 10 μM)
[5]; human MC5 membranes
  A5: inhibition of radioligand binding: + (“+” indicates greater than 50% inhibition at 10 μM)
[6]; [125I]-S36057, human MCH1 membranes
  A6: inhibition of radioligand binding: + (“+” indicates greater than 50% inhibition at 10 μM)
[7]; human MOP membranes
  A7: inhibition of radioligand binding: − (“−” indicates less than 50% inhibition at 10 μM)
[8]; human NK1 membranes
  A8: inhibition of radioligand binding: + (“+” indicates greater than 50% inhibition at 10 μM)
[9]; human NPY-Y1 membranes
  A9: inhibition of radioligand binding: − (“−” indicates less than 50% inhibition at 10 μM)
[10]; human ORL1 membranes
  A10: inhibition of radioligand binding: + (“+” indicates greater than 50% inhibition at 10 μM)
[11]; mouse mUR2 membranes
  A11: inhibition of radioligand binding: − (“−” indicates less than 50% inhibition at 10 μM)

## COC[C@H]1OC(OCc2ccc(-c3ccccc3)cc2)[C@H](NC(=O)CCCNC(=N)N)[C@@H](OCc2ccc(-c3ccccc3)cc2)[C@@H]1O (single isomer, unassigned) [compound 336]
[1]; 10 µM
  A1: inhibition of radioligand binding, human δ-opioid (DOP): − (“−” indicates less than 50% inhibition at 10 μM)
[2]; 10 µM
  A2: inhibition of radioligand binding, human κ-opioid (KOP): − (“−” indicates less than 50% inhibition at 10 μM)
[3]; 10 µM
  A3: inhibition of radioligand binding, human melanocortin (MC3): − (“−” indicates less than 50% inhibition at 10 μM)
[4]
  A4: inhibition of radioligand binding, human melanocortin (MC4): + (“+” indicates greater than 50% inhibition at 10 μM)
[5]
  A5: inhibition of radioligand binding, human melanocortin (MC5): + (“+” indicates greater than 50% inhibition at 10 μM)
[6]; [125I]-S36057
  A6: inhibition of radioligand binding, human melanin-concentrating hormone (MCH1): + (“+” indicates greater than 50% inhibition at 10 μM)
[7]; 10 µM
  A7: inhibition of radioligand binding, human μ-opioid (MOP): − (“−” indicates less than 50% inhibition at 10 μM)
[8]
  A8: inhibition of radioligand binding, human neurokinin (NK1): + (“+” indicates greater than 50% inhibition at 10 μM)
[9]
  A9: inhibition of radioligand binding, human neuropeptide Y (NPY-Y1): − (“−” indicates less than 50% inhibition at 10 μM)
[10]
  A10: inhibition of radioligand binding, human opioid (ORL1): − (“−” indicates less than 50% inhibition at 10 μM)
[11]
  A11: inhibition of radioligand binding, mouse urotensin (mUR2): − (“−” indicates less than 50% inhibition at 10 μM)
